The results in this text go back to patent US20250179103A1, “6-OXODECAHYDROPYRROLO[1,2-A][1,5]DIAZOCINE AND 6-OXODECAHYDRO-4H-PYRROLO[2,1-D][1,5]THIAZOCINE DERIVATIVES AS STAT3 AND STAT6 MODULATORS FOR THE TREATMENT OF CANCER AND INFLAMMATORY CONDITIONS” (Recludix Pharma, Inc., priority 2022, published 2025).

pIC50: −log10 of the molar value.

The subject of assay [1] is pY705-STAT3 in Peripheral Blood Mononuclear Cells (PBMC). Kind of assay: MSD-pSTAT-PBMC Assay (pSTAT3, IL-6 stimulated). The conditions noted are these: Homo sapiens, compound 3 hrs, then 10 ng/mL IL-6 for 10 min. Type of assay: cell-based, Human. The method in brief:
(§1)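 Human PBMCs were preincubated 3 h with compound, then stimulated 10 min with 10 ng/mL IL-6 (pY705-STAT3) or 1 ng/mL IL-4 (pY641-STAT6). Lysates were read by MSD sandwich immunoassay, capturing total STAT and detecting phospho-STAT. Signal was unstimulated-subtracted and DMSO-normalised, with variable-slope IC50 binned A–D.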

Assay [2] deals with pY641-STAT6 in Peripheral Blood Mononuclear Cells (PBMC). Kind of assay: MSD-pSTAT-PBMC Assay (pSTAT6, IL-4 stimulated). Particulars: Homo sapiens, compound 3 hrs, then 1 ng/mL IL-4 for 10 min. Type of assay: cell-based, Human. The essentials:
as §1

For orientation: pIC50 means the negative decadic logarithm of the IC50, by convention in mol/L. A lower pIC50 goes with a high IC50.

Turning to `CN(CC(C)(C)C#N)C(=O)[C@@H]1CC[C@@H]2CCN(CC(F)F)C[C@H](NC(=O)c3cc4cc(C(F)(F)P(=O)(OCOC(=O)C(C)(C)C)OCOC(=O)C(C)(C)C)ccc4s3)C(=O)N21` [Compound 352, ((((2-(((5S,8S,10aR)-8-((2-cyano-2-methylpropyl)(methyl)carbamoyl)-3-(2,2-difluoroethyl)-6-oxodecahydropyrrolo[1,2-a][1,5]diazocin-5-yl)carbamoyl)benzo[b]thiophen-5-yl)difluoromethyl)phosphoryl)bis (oxy))bis(methylene) bis(2,2-dimethylpropanoate)], the pIC50 in assay [1] and in assay [2] was ≥ 7.00 in each case.

Regarding `CC(=O)N1CC[C@H]2CC[C@@H](C(=O)N(C)c3ccccc3)N2C(=O)[C@@H](NC(=O)/C=C/c2ccc(C(F)(F)P(=O)(OCOC(=O)C(C)(C)C)OCOC(=O)C(C)(C)C)cc2)C1` [Compound 315, ((((4-((E)-3-(((5S,8S, 10aR)-3-acetyl-8-(methyl (phenyl)carbamoyl)-6-oxodecahydro-pyrrolo[1,2-a][1,5]diazocin-5-yl)amino)-3-oxoprop-1-en-1-yl)phenyl)difluoro-methyl)phosphoryl)bis(oxy))bis (methylene) bis(2,2-dimethylpro-panoate)], the pIC50 in assay [1] is < 5.52; in assay [2], 6.00 to 7.00.

Regarding `CC(=O)N1CC[C@H]2CC[C@@H](C(=O)N(C)c3ccc(C#N)cc3)N2C(=O)[C@@H](NC(=O)c2cc3cc(C(F)(F)P(=O)(OCOC(=O)C(C)(C)C)OCOC(=O)C(C)(C)C)ccc3s2)C1` [Compound 316, ((((2-(((5S,8S, 10aR)-3-acetyl-8-((4-cyanophenyl) (methyl)carbamoyl)-6-oxodecahydro-pyrrolo[1,2-a][1,5]diazocin-5-yl)carbamoyl)benzo[b]thiophen-5-yl)difluoro-methyl)phos-phoryl)bis(oxy)) bis(methylene) bis(2,2-dimethylpro-panoate)], the pIC50 in assay [1] is < 5.52; in assay [2] it was 5.52 to 6.00.

As to `CC(=O)N1CC[C@H]2CC[C@@H](C(=O)N(C)c3ccccc3)N2C(=O)[C@@H](NC(=O)c2cc3cc(C(F)(F)P(=O)(OCOC(=O)C(C)(C)C)OCOC(=O)C(C)(C)C)ccc3[nH]2)C1` [Compound 300, ((((2-(((5S, 8S,10aR)-3-acetyl-8-(methyl (phenyl)carbamoyl)-6-oxodecahydro-pyrrolo[1,2-a][1,5]diazocin-5-yl)carbamoyl)-1H-indol-5-yl)difluoro-methyl)phos-phoryl)bis(oxy)) bis(methylene) bis(2,2-dimethylpro-panoate)], the pIC50 in assay [1] and in assay [2] was 6.00 to 7.00 in each case.

Regarding `CC(=O)N1CC[C@H]2CC[C@@H](C(=O)Nc3ccc(-c4ccccc4)cc3)N2C(=O)[C@@H](NC(=O)/C=C/c2ccc(C(F)(F)P(=O)(OCOC(=O)C(C)(C)C)OCOC(=O)C(C)(C)C)cc2)C1` [Compound 324, ((((4-((E)-3-(((5S,8S, 10aR)-8-([1,1′-biphenyl]-4-ylcarbamoyl)-3-acetyl-6-oxodecahydro-pyrrolo[1,2-a][1,5]diazocin-5-yl)amino)-3-oxoprop-1-en-1-yl)phenyl)difluoro-methyl)phosphoryl)bis(oxy))bis (methylene) bis(2,2-dimethylpro-panoate)], the pIC50 in assay [1] and in assay [2] was < 5.52 each time.

`COCC(C)(C)OC(=O)OCOP(=O)(OCOC(=O)OC(C)(C)COC)C(F)(F)c1ccc2sc(C(=O)N[C@H]3CN(C(C)=O)CC[C@H]4CC[C@@H](C(=O)N(C)c5ccccc5)N4C3=O)cc2c1` [Compound 287, ((((2-(((5S, 8S,10aR)-3-acetyl-8-(methyl (phenyl)carbamoyl)-6-oxodecahydro-pyrrolo[1,2-a][1,5]diazocin-5-yl)carbamoyl)benzo[b]thiophen-5-yl)difluoro-methyl)phosphoryl)bis(oxy)) bis(methylene) bis(1-methoxy-2-methylpropan-2-yl) bis(carbonate)]: the pIC50 in assay [1] and in assay [2] was < 5.52 throughout.

`CCN1CC[C@H]2CC[C@@H](C(=O)N3C[C@@H](C#N)[C@H](c4ccccc4)C3)N2C(=O)[C@@H](NC(=O)c2cc3cc(C(F)(F)P(=O)(OCCSC(=O)C(C)(C)C)OCCSC(=O)C(C)(C)C)ccc3s2)C1` (single isomer, unassigned) [Compound 330, S,S′-(((((2-(((5S,8S,10aR)-8-((3S,4R or 3R,4S)-3-cyano-4-phenylpyrrolidine-1-carbonyl)-3-ethyl-6-oxodecahydropyrrolo[1,2-a][1,5]diazocin-5-yl)carbamoyl)benzo[b]thiophen-5-yl)difluoromethyl)phosphoryl)bis(oxy))bis(ethane-2,1-diyl)) bis(2,2-dimethylpropanethioate)]: the pIC50 in assay [1] and in assay [2] was 5.52 to 6.00 each time.

For the compound `CC(=O)N1CC[C@H]2CC[C@@H](C(=O)N(C)c3ccccc3)N2C(=O)[C@@H](NC(=O)c2cc3cc(C(F)(F)P(=O)(N[C@H](C)C(=O)OC(C)C)Oc4ccccc4)ccc3s2)C1` (stereo partly drawn) [Compound 326, isopropyl (((2-(((5S,8S, 10aR)-3-acetyl-8-(methyl (phenyl)carbamoyl)-6-oxodecahydro-pyrrolo[1,2-a][1,5]diazocin-5-yl)carbamoyl)benzo[b]thiophen-5-yl)difluoro-methyl) (phenoxy)phosphoryl)-D-alaninate], the pIC50 in assay [1] and in assay [2] was < 5.52 throughout.

In the case of `CC(=O)N1CC[C@H]2CC[C@@H](C(=O)N(C)c3ccccc3)N2C(=O)[C@@H](NC(=O)c2cc3cc(C(=O)P(=O)(OCOC(=O)C(C)(C)C)OCOC(=O)C(C)(C)C)ccc3s2)C1` [Compound 307, (((2-(((5S, 8S,10aR)-3-acetyl-8-(methyl (phenyl)carbamoyl)-6-oxo-decahydro-pyrrolo[1,2-a][1,5]diazocin-5-yl)carbamoyl)benzo[b]thiophene-5-carbonyl)phosphoryl)bis(oxy))bis (methylene) bis(2,2-dimethylpro-panoate)], the pIC50 in assay [1] and in assay [2] was < 5.52 each time.

`CC(=O)N1CC[C@H]2CC[C@@H](C(=O)N(C)c3ccccc3)N2C(=O)[C@@H](NC(=O)c2cc3cc(C(F)(F)P(=O)(OCOC(=O)OC(C)C)OCOC(=O)OC(C)C)ccc3s2)C1` [Compound 318, ((((2-(((5S,8S, 10aR)-3-acetyl-8-(methyl (phenyl)carbamoyl)-6-oxodecahydro-pyrrolo[1,2-a][1,5]diazocin-5-yl)carbamoyl)benzo[b]thiophen-5-yl)difluoro-methyl)phos-phoryl)bis(oxy)) bis(methylene) diisopropyl bis(carbonate)]: the pIC50 in assay [1] and in assay [2] was 6.00 to 7.00 each time.

On to `Cc1ccc2[nH]nc(C(=O)N3CC[C@H]4CC[C@@H](C(=O)N(C)C)N4C(=O)[C@@H](NC(=O)c4cc5cc(CP(=O)(N[C@@H](C)C(=O)OC(C)C)Oc6ccccc6)ccc5s4)C3)c2c1` (stereo partly drawn) [Compound 337, isopropyl(((2-(((5S,8S,10aR)-8-(dimethylcarbamoyl)-3-(5-methyl-1H-indazole-3-carbonyl)-6-oxodecahydropyrrolo[1,2-a][1,5]diazocin-5-yl)carbamoyl)benzo [b]thiophen-5-yl)methyl)(phenoxy)phosphoryl)-L-alaninate], for which the pIC50 in assay [1] and in assay [2] was < 5.52 in each case.

`CC(=O)N1CC[C@H]2CC[C@@H](C(=O)N3C[C@H](c4ccccc4)[C@@H](C#N)C3)N2C(=O)[C@@H](NC(=O)c2ccc3ccc(C(F)(F)P(=O)(OCOC(=O)C(C)(C)C)OCOC(=O)C(C)(C)C)cc3c2)C1` (mixture of isomers) [Compound 323, ((((7-(((5S,8S, 10aR)-3-acetyl-8-((rel- trans)-3-cyano-4-phenyl-pyrrolidine-1-carbonyl)-6-oxodecahydro-pyrrolo[1,2-a][1,5]diazocin-5-yl)carbamoyl)naphthalen-2-yl)difluoro-methyl)phos-phoryl)bis(oxy)) bis(methylene) bis(2,2-dimethylpro-panoate)]: the pIC50 in assay [1] was 5.52 to 6.00; in assay [2] it was ≥ 7.00.

Regarding `CCN1CC[C@H]2CC[C@@H](C(=O)N3C[C@@H](C#N)[C@H](c4ccccc4)C3)N2C(=O)[C@@H](NC(=O)c2cc3cc([C@H](F)P(=O)(OCCSC(=O)CC(C)C)OCCSC(=O)CC(C)C)ccc3s2)C1` (single isomer, unassigned) [Compound 339, S,S′-(((((R or S)-(2-(((5S,8S,10aR)-8-((3S,4R or 3R,4S)-3-cyano-4-phenylpyrrolidine-1-carbonyl)-3-ethyl-6-oxodecahydropyrrolo[1,2-a][1,5]diazocin-5-yl)carbamoyl)benzo[b]thiophen-5-yl)fluoromethyl)phosphoryl)bis(oxy))bis(ethane-2,1-diyl))bis(3-methylbutane thioate)], the pIC50 was 5.52 to 6.00 in assay [1] and 6.00 to 7.00 in assay [2].

Take `CC(=O)N1CC[C@H]2CC[C@@H](C(=O)N(C)c3ccccc3)N2C(=O)[C@@H](NC(=O)c2cc3cc(C(F)(F)P(=O)(OCOC(=O)C(C)(C)C)OCOC(=O)C(C)(C)C)ccc3s2)C1` [Compound 296, ((((2-(((5S,8S, 10aR)-3-acetyl-8-(methyl (phenyl)carbamoyl)-6-oxodecahydro-pyrrolo[1,2-a][1,5]diazocin-5-yl)carbamoyl)benzo[b]thiophen-5-yl)difluoro-methyl)phos-phoryl)bis(oxy)) bis(methylene) bis(2,2-dimethylpro-panoate)]: the pIC50 in assay [1] is 6.00 to 7.00; in assay [2], ≥ 7.00.
